Assay results reported in the supplement of paper PMC11061612.

What was measured:
Assay in all cases: combination Emax (second highest fraction inhibited in the dose matrix, 72 h); higher = more inhibition; extreme values may be limits of the assay
[1] = tested on: NH-12 (Neuroblastoma)
Method in brief: (§1)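 Cell lines in DMEM/F12 or RPMI with 10% FBS were plated in 1536-well plates, held 24 hours at 37°C, 5% CO2, then given two-drug dose matrices for 72 hours (DMSO typically 0.2%). Viability was read by CellTiter-Glo 2.0 luminescence and scaled as inhibition from 0 (vehicle wells) to 1 (blank wells). Combination Emax is the second-highest inhibition in the matrix; Bliss excess is observed combination effect minus expected EA + EB − EA·EB, EA and EB being single-agent effects.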

[2] = tested on: TGBC11TKB (Gastric Carcinoma)
Method in brief: as §1

[3] = tested on: HSC-2 (Oral Cavity Carcinoma)
Method in brief: as §1

[4] = tested on: HuP-T3 (Pancreatic Carcinoma)
Method in brief: as §1

[5] = tested on: GOTO (Neuroblastoma)
Method in brief: as §1

[6] = tested on: HC-1 (Other Blood Carcinomas)
Method in brief: as §1

[7] = tested on: NB7 (Neuroblastoma)
Method in brief: as §1

[8] = tested on: KINGS-1 (Low Grade Glioma)
Method in brief: as §1

[9] = tested on: KLE (Endometrial Carcinoma)
Method in brief: as §1

[10] = tested on: RPMI-7951 (Melanoma)
Method in brief: as §1

[11] = tested on: NCI-H322M (Lung Adenocarcinoma)
Method in brief: as §1

[12] = tested on: BT-20 (Breast Carcinoma)
Method in brief: as §1

[13] = tested on: OCUB-M (Breast Carcinoma)
Method in brief: as §1

[14] = tested on: LOU-NH91 (Squamous Cell Lung Carcinoma)
Method in brief: as §1

[15] = tested on: PF-382 (T-Lymphoblastic Leukemia)
Method in brief: as §1

[16] = tested on: KU-19-19 (Bladder Carcinoma)
Method in brief: as §1

[17] = tested on: A704 (Kidney Carcinoma)
Method in brief: as §1

[18] = tested on: VMRC-LCD (Lung Adenocarcinoma)
Method in brief: as §1

[19] = tested on: EBC-1 (Squamous Cell Lung Carcinoma)
Method in brief: as §1

| SMILES | combination Emax [1] | combination Emax [2] | combination Emax [3] | combination Emax [4] | combination Emax [5] | combination Emax [6] | combination Emax [7] | combination Emax [8] | combination Emax [9] | combination Emax [10] | combination Emax [11] | combination Emax [12] | combination Emax [13] | combination Emax [14] | combination Emax [15] | combination Emax [16] | combination Emax [17] | combination Emax [18] | combination Emax [19] |
| --- | --- | --- | --- | --- | --- | --- | --- | --- | --- | --- | --- | --- | --- | --- | --- | --- | --- | --- | --- |
| C=CCn1c(=O)c2cnc(Nc3ccc(N4CCN(C)CC4)cc3)nc2n1-c1cccc(C(C)(C)O)n1 [AZD1775] + O=C(c1cc(Cc2n[nH]c(=O)c3ccccc23)ccc1F)N1CCN(C(=O)C2CC2)CC1 [Olaparib] (first compound max 1 µM, partner max 10 µM) | 0.906 | 0.794 | 0.63 | 0.274 | 0.771 | 0.983 | 0.632 | 0.381 | 0.456 | 0.766 | 0.666 | 0.518 | 0.504 | 0.383 | 0.976 | 0.804 | 0.462 | 0.34 | 0.272 |
| COc1cccc(OCCCN)c1-c1cc(Nc2cnc(C#N)cn2)n[nH]1 [Prexasertib] + C[C@@H]1COCCN1C2=NC(=NC(=C2)C3(CC3)[S@](=N)(=O)C)C4=C5C=CNC5=NC=C4 [AZD6738] (first compound max 1 µM, 7x7, partner max 10 µM) | 0.925 | 0.977 | 0.741 | 0.663 | 0.913 | 1 | 0.808 | 0.506 | 0.437 | 0.957 | 0.994 | 0.599 | 0.585 | 0.461 | 0.917 | 0.836 | 0.504 | 0.753 | 0.626 |
| Cc1cc2ncnn2cc1Nc1ncc2c(n1)n(C1CCOCC1)c(=O)n2C [AZD7648] + C[C@@H]1COCCN1C2=NC(=NC(=C2)C3(CC3)[S@](=N)(=O)C)C4=C5C=CNC5=NC=C4 [AZD6738] (first compound max 10 µM, 7x7, partner max 10 µM) | 0.863 | 0.861 | 0.596 | 0.606 | 0.889 | 0.616 | 0.572 | 0.283 | 0.419 | 0.912 | 0.944 | 0.479 | 0.49 | 0.295 | 0.858 | 0.782 | 0.395 | 0.579 | 0.293 |
| CN(C)CCCOc1ccc(-c2ccc3ncc4c(c3c2)n(C2CCOCC2)c(=O)n4C)cn1 [AZD0156] + C=CCn1c(=O)c2cnc(Nc3ccc(N4CCN(C)CC4)cc3)nc2n1-c1cccc(C(C)(C)O)n1 [AZD1775] (first compound max 1 µM, partner max 1 µM) | 0.877 | 0.895 | 0.54 | 0.205 | 0.865 | 0.994 | 0.6 | 0.293 | 0.531 | 0.687 | 0.77 | 0.476 | 0.209 | 0.371 | 0.954 | 0.751 | 0.379 | 0.357 | 0.165 |
| CCN(CCO)CCCOc1ccc2c(Nc3cc(CC(=O)Nc4cccc(F)c4)[nH]n3)ncnc2c1 [AZD2811] + C[C@@H]1COCCN1C2=NC(=NC(=C2)C3(CC3)[S@](=N)(=O)C)C4=C5C=CNC5=NC=C4 [AZD6738] (first compound max 1 µM, 7x7, partner max 10 µM) | 0.858 | 0.791 | 0.68 | 0.589 | 0.893 | 0.789 | 0.603 | 0.302 | 0.387 | 0.856 | 0.852 | 0.443 | 0.748 | 0.27 | 0.916 | 0.779 | 0.43 | 0.708 | 0.32 |
| COc1cccc(OCCCN)c1-c1cc(Nc2cnc(C#N)cn2)n[nH]1 [Prexasertib] + C=CCn1c(=O)c2cnc(Nc3ccc(N4CCN(C)CC4)cc3)nc2n1-c1cccc(C(C)(C)O)n1 [AZD1775] (first compound max 1 µM, partner max 1 µM) | 0.944 | 0.991 | 0.882 | 0.679 | 0.905 | 1 | 0.938 | 0.638 | 0.674 | 0.991 | 0.974 | 0.839 | 0.954 | 0.716 | 0.942 | 0.858 | 0.517 | 0.772 | 0.666 |
| CCN(CCO)CCCOc1ccc2c(Nc3cc(CC(=O)Nc4cccc(F)c4)[nH]n3)ncnc2c1 [AZD2811] + C=CCn1c(=O)c2cnc(Nc3ccc(N4CCN(C)CC4)cc3)nc2n1-c1cccc(C(C)(C)O)n1 [AZD1775] (first compound max 1 µM, partner max 1 µM) | 0.877 | 0.818 | 0.43 | 0.197 | 0.883 | 0.983 | 0.662 | 0.276 | 0.564 | 0.697 | 0.801 | 0.455 | 0.779 | 0.383 | 0.978 | 0.765 | 0.392 | 0.553 | 0.24 |
| COc1cccc2c1C(=O)c1c(O)c3c(c(O)c1C2=O)C[C@@](O)(C(=O)CO)C[C@@H]3O[C@H]1C[C@H](N)[C@H](O)[C@H](C)O1 [Doxorubicin] + Cc1cc2ncnn2cc1Nc1ncc2c(n1)n(C1CCOCC1)c(=O)n2C [AZD7648] (first compound max 1 µM, 7x7, partner max 10 µM) | 0.944 | 0.203 | 0.89 | 0.606 | 0.816 | 0.975 | 0.826 | 0.664 | 0.6 | 0.957 | 0.792 | 0.769 | 0.943 | 0.782 | 0.989 | 0.814 | 0.176 | 0.612 | 0.496 |
| COc1cccc(OCCCN)c1-c1cc(Nc2cnc(C#N)cn2)n[nH]1 [Prexasertib] + Cc1cc2ncnn2cc1Nc1ncc2c(n1)n(C1CCOCC1)c(=O)n2C [AZD7648] (first compound max 1 µM, 7x7, partner max 10 µM) | 0.908 | 0.96 | 0.778 | 0.716 | 0.908 | 1 | 0.842 | 0.607 | 0.471 | 0.971 | 0.979 | 0.646 | 0.595 | 0.44 | 0.934 | 0.836 | 0.504 | 0.749 | 0.588 |
| Cc1cc2ncnn2cc1Nc1ncc2c(n1)n(C1CCOCC1)c(=O)n2C [AZD7648] + C=CCn1c(=O)c2cnc(Nc3ccc(N4CCN(C)CC4)cc3)nc2n1-c1cccc(C(C)(C)O)n1 [AZD1775] (first compound max 10 µM, partner max 1 µM) | 0.848 | 0.825 | 0.596 | 0.283 | 0.783 | 0.992 | 0.575 | 0.318 | 0.508 | 0.704 | 0.923 | 0.559 | 0.448 | 0.466 | 0.957 | 0.749 | 0.478 | 0.425 | 0.209 |
| C[C@@H]1COCCN1c1cc(C2([S@](C)(=N)=O)CC2)nc(-c2ccnc3[nH]ccc23)n1 [AZD6738] + O=C(c1cc(Cc2n[nH]c(=O)c3ccccc23)ccc1F)N1CCN(C(=O)C2CC2)CC1 [Olaparib] (first compound max 10 µM, 7x7, partner max 10 µM) | 0.867 | 0.796 | 0.721 | 0.705 | 0.808 | 0.76 | 0.944 | 0.376 | 0.482 | 0.886 | 0.697 | 0.415 | 0.634 | 0.236 | 0.916 | 0.767 | 0.438 | 0.562 | 0.487 |
| CS(=O)(=O)CCNCc1ccc(-c2ccc3ncnc(Nc4ccc(OCc5cccc(F)c5)c(Cl)c4)c3c2)o1 [Lapatinib] + NC1(c2ccc(-c3nc4ccn5c(=O)[nH]nc5c4cc3-c3ccccc3)cc2)CCC1 [MK-2206] (first compound max 10 µM, 7x7, partner max 10 µM) | – | 0.418 | 0.987 | – | – | – | 0.821 | 0.83 | – | – | – | – | 1 | – | 0.974 | 0.837 | – | 0.205 | – |
| CCc1c2c(nc3ccc(O)cc13)-c1cc3c(c(=O)n1C2)COC(=O)[C@]3(O)CC [SN-38] + CN(C)CCCOc1ccc(-c2ccc3ncc4c(c3c2)n(C2CCOCC2)c(=O)n4C)cn1 [AZD0156] (first compound max 0.3 µM, 7x7, partner max 1 µM) | 0.838 | 0.772 | 0.965 | 0.704 | 0.861 | 1 | 0.913 | 0.243 | 0.453 | 0.933 | 0.811 | 0.81 | 0.764 | 0.857 | 0.994 | 0.828 | 0.504 | 0.0996 | 0.863 |
| C=CCn1c(=O)c2cnc(Nc3ccc(N4CCN(C)CC4)cc3)nc2n1-c1cccc(C(C)(C)O)n1 [AZD1775] + C[C@@H]1COCCN1C2=NC(=NC(=C2)C3(CC3)[S@](=N)(=O)C)C4=C5C=CNC5=NC=C4 [AZD6738] (first compound max 1 µM, partner max 10 µM) | 0.937 | 0.922 | 0.832 | 0.705 | 0.888 | 0.971 | 0.934 | 0.533 | 0.59 | 0.951 | 0.871 | 0.718 | 0.799 | 0.54 | 0.966 | 0.811 | 0.57 | 0.733 | 0.616 |
